Reference: patent publication US12059422B2 (MEI Pharma, Inc., priority 2011, dated 2024)

What was measured:
PI3K beta = target: T1, PI3K beta (Homo sapiens, UniProt P42338); assay: Luciferase-based luminescence assay (ADP Glo), PI3K beta enzymatic activity; format: biochemical; settings: for IC50: inhibition of enzymatic activity, ADP Glo, 25 μM ATP, read-out: IC50 p110β; for α/β ratio: ratio of enzymatic IC50 values, Table 1
T1 construct: purchased Millipore, Billerica, MA, USA
Experimental: PI3K catalyzes the conversion of phosphatidylinositol-4,5-bisphosphate (PIP2) and ATP to phosphatidylinositol-3,4,5-trisphosphate (PIP3) and ADP. For all assays, the reaction buffer comprised 50 mM HEPES, pH 7.5, 3 mM MgCl2, 1 mM EGTA, 100 mM NaCl, 0.03% CHAPS and 2 mM DTT. Compounds for testing were dissolved and serially diluted in 100% DMSO (total of 10 concentrations), then diluted 1:25 in reaction buffer.
PI3K beta and gamma enzymatic activity was determined by measuring the amount of ADP produced following the kinase reaction using a luciferase-based luminescence assay (ADP Glo®, Promega Corp., Madison, WI, USA). PI3K enzyme solutions were prepared by diluting PI3K beta (Millipore, Billerica, MA, USA) or PI3K gamma (Invitrogen Corp., Carlsbad, CA, USA) in reaction buffer, to 4× the final assay concentration (final concentrations of enzymes were 4.8 nM and 7.6 nM for PI3K beta and PI3K gamma respectively). A substrate solution was prepared by mixing PIP2 and ATP in reaction buffer at 2× the final assay concentration (final concentrations were 50 μM and 25 μM for PIP2 and ATP respectively). 2.5 μL each of the compound and kinase mixtures were added to individual wells of white low volume 384-well assay plates and mixed by shaking. The reactions were started by adding 5 μL of substrate mixture per well and shaking. The assay plates were covered and reactions were allowed to proceed for 1 hour. Then, 5 μL of reaction mix was transferred to another white low volume 384-well plate, and 5 μL of ADP-Glo™ reagent was added. The plates were briefly centrifuged and incubated for 40 minutes, after which 10 μL of kinase detection buffer was added. The plates then were centrifuged briefly, shaken slowly and equilibrated at room temperature for 30 minutes, after which luminescence was measured using a FlexStation plate reader (Molecular Devices, Sunnyvale, CA, USA). IC50 values were determined by curve fitting using Graphpad Prism software (Graphpad Software, La Jolla, CA, USA).

PI3Kβ = target: T2, PI3Kβ (Homo sapiens, UniProt P42338); assay: ELISA assay for PI3Kβ: in-cell ELISA, phosphorylation of AKT (Ser473) in PC-3 cells; format: cell-based; settings: for IC50: cellular, pAKT (Ser473), PC-3 cells, LPA stimulation, read-out: IC50 p110β; for α/β ratio: ratio of cellular IC50 values, Table 2
T2 construct: endogenous in cells; host or cells: PC-3 (ATCC #CRL-1435)
Experimental: Cellular PI3Kβ activity was determined by measuring the phosphorylation of AKT (Ser473) using an in-cell ELISA assay. PC-3 (prostate carcinoma) cells were obtained from ATCC (ATCC #CRL-1435). Growth medium was DMEM (CellGro #CV-10-013-CV) supplemented with 10% fetal bovine serum, 100 IU/mL penicillin, 100 μg/mL streptomycin, and 1×MEM non-essential amino acids. Phosphate buffered saline (PBS) contained 2.7 M NaCl, 54 mM KCl, 86 mM […] (dibasic, anhydrous), 28 mM […] (monobasic, anhydrous), pH 7.2, 10× stimulation mixture contained 50 μM LPA (Cayman #62215) diluted in serum-free DMEM medium (CellGro #CV-10-013-CV). Compounds for testing were dissolved and serially diluted in 100% DMSO (total of 10 concentrations), then diluted in serum-free DMEM to 2× final assay concentration. 2× fixative solution contained 8% formaldehyde (Amresco #M134) diluted in PBS. Permeabilization solution contained PBS supplemented with 0.1% Triton X-100. Blocking buffer was obtained from LiCor (LiCor #927-40000). Wash buffer contained PBS supplemented with 0.1% Tween-20. Primary antibody solution was rabbit anti-pAKT^S473 monoclonal antibody (Cell Signaling #4060) and mouse anti-total S6 (Santa Cruz #74459) diluted 1:500 and 1:2000, respectively, in blocking buffer. Secondary antibody solution was IRDye 800CW-conjugated goat anti-rabbit IgG (LiCor #926-32211) and IRDye 680LT-conjugated goat anti-mouse IgG (LiCor #926-68020) diluted 1:2000 and 1:1000, respectively, in blocking buffer.
PC-3 cells were subcultured in growth medium and seeded into flat, clear bottom, 96-well plates (Corning #3904) at 16000 cells/well, then incubated overnight in a 37° C., 5% CO2 incubator. Growth medium in plates was replaced with 100 μL/well serum-free DMEM and incubated overnight in a 37° C., 5% CO2 incubator. 50 μL/well of fresh serum-free DMEM was added to plates. Compound treatment was performed by adding 50 μL/well of 2× compound mixture to plates and incubating for 2 hrs at 37° C., 5% CO2, after which 11 μL/well of 10× stimulation mixture was added and plates were incubated for 10 min at 37° C., 5% CO2. Fixation was performed by adding 110 μL/well of 2× fixative solution to plates and incubating for 20 min at room temperature. Permeabilization was performed by replacing fixation solution with 150 μL/well permeabilization solution and incubating for 10 min at room temperature. Permeabilization was repeated (for a total of 2 times). Permeabilization solution was replaced with 100 μL/well blocking buffer and plates were incubated for 1 hr at room temperature, after which 100 μL/well of primary antibody solution was added and plates were incubated overnight at 4° C. Plates were washed with wash buffer, after which 100 μL/well of secondary antibody solution was added to the plates and incubated in the dark for 1 hr at room temperature. Plates were washed with wash buffer, followed by awash with PBS. After completely removing PBS, plates were scanned on the Licor Odyssey Imager. Images quantified using Licor Odyssey application software. IC50 values were determined by curve fitting using a Collaborative Drug Discovery database (www.collaborativedrug.com).

T2 sequence (P42338 whole entry): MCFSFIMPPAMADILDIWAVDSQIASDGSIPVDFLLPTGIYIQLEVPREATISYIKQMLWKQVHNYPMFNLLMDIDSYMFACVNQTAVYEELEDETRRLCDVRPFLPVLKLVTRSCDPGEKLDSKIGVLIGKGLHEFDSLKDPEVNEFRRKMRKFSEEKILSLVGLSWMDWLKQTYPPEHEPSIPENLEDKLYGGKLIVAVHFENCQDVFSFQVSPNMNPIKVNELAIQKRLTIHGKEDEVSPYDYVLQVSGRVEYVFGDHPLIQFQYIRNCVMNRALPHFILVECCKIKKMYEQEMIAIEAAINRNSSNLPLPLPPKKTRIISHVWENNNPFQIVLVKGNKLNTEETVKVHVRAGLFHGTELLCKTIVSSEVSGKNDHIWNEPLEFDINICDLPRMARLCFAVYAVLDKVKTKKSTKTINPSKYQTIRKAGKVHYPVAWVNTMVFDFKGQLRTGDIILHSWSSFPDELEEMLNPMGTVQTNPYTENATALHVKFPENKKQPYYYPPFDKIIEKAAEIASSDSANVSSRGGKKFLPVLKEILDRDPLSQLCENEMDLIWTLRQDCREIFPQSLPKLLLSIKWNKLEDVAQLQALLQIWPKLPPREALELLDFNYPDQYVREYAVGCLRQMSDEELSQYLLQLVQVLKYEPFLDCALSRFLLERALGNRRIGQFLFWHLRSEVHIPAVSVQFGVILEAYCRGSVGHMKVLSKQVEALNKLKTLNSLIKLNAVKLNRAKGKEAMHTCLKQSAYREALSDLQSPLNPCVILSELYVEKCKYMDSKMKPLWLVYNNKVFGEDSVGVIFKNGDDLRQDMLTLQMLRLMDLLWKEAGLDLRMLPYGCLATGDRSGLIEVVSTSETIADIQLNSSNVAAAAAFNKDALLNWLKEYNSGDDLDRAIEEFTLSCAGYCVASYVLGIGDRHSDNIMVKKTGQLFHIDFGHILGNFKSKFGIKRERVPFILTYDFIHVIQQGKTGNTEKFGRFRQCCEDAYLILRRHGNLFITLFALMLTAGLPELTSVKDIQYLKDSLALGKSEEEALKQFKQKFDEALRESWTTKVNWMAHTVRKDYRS
T2 sequence (P27986 whole entry partner): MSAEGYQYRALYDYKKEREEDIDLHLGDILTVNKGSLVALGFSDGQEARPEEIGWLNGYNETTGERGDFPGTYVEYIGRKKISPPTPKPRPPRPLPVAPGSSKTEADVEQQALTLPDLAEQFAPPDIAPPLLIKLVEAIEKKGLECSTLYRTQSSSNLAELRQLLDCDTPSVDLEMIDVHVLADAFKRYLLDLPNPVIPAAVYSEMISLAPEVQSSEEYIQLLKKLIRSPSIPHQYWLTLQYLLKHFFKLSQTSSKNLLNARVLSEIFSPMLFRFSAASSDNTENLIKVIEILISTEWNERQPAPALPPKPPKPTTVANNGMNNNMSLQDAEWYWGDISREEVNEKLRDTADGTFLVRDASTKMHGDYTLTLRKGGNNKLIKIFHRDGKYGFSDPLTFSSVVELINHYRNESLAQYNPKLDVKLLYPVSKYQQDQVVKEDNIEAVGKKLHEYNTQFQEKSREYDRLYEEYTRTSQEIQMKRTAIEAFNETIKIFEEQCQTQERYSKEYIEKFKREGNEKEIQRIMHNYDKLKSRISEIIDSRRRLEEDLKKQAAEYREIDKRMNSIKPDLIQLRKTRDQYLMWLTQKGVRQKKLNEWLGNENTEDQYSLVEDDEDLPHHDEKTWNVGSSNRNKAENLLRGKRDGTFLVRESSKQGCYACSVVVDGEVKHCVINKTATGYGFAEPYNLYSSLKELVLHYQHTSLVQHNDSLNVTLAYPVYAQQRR
T1 sequence (P42338 whole entry, species assumed): as the sequence (P42338 whole entry) above
T1 sequence (P27986 whole entry partner, species assumed): as the sequence (P27986 whole entry partner) above

Row | Structure (SMILES) | IC50 (PI3K beta) [µM] | α/β ratio (PI3K beta) | IC50 (PI3Kβ) [µM] | α/β ratio (PI3Kβ)
1 | COc1cccc(CC(C)(C)Nc2nc(N3CCOCC3)nc(-n3c(C(F)F)nc4ccccc43)n2)c1 [Compound A21, 4-(2-(difluoromethyl)-1H-benzo[d]imidazol-1-yl)-N-(1-(3-methoxyphenyl)-2-methylpropan-2-yl)-6-morpholino-1,3,5-triazin-2-amine] | 0.1 to 0.2 | C’ | 0.1 to 0.2 | A’
2 | CC(C)(Cc1cccc2ccccc12)Nc1nc(N2CCOCC2)nc(-n2c(C(F)F)nc3ccccc32)n1 [Compound A27, 4-(2-(difluoromethyl)-1H-benzo[d]imidazol-1-yl)-N-(2-methyl-1-(naphthalen-1-yl)propan-2-yl)-6-morpholino-1,3,5-triazin-2-amine] | ≤ 0.1 | B’ | ≤ 0.1 | 
3 | CC(C)(Cc1ccccc1-c1ccncc1)Nc1nc(N2CCOCC2)nc(-n2c(C(F)F)nc3ccccc32)n1 [Compound A33, 4-(2-(difluoromethyl)-1H-benzo[d]imidazol-1-yl)-N-(2-methyl-1-(2-(pyridin-4-yl)phenyl)propan-2-yl)-6-morpholino-1,3,5-triazin-2-amine] | ≤ 0.1 | B’ | ≤ 0.1 | 
4 | CN1CCC(c2ccccc2CC(C)(C)Nc2nc(N3CCOCC3)nc(-n3c(C(F)F)nc4ccccc43)n2)CC1 [Compound A35, 4-(2-(difluoromethyl)-1H-benzo[d]imidazol-1-yl)-N-(2-methyl-1-(2-(1-methylpiperidin-4-yl)phenyl)propan-2-yl)-6-morpholino-1,3,5-triazin-2-amine] | 0.2 to 0.5 | B’ | ≤ 0.1 | A’
5 | CC(C)(Cc1cccc(F)c1)Nc1nc(N2CCOCC2)nc(-n2c(C(F)F)nc3ccccc32)n1 [Compound A39, 4-(2-(difluoromethyl)-1H-benzo[d]imidazol-1-yl)-N-(1-(3-fluorophenyl)-2-methylpropan-2-yl)-6-morpholino-1,3,5-triazin-2-amine] | ≤ 0.1 | A’ | ≤ 0.1 | A’
6 | CC(C)(Cc1ccccc1-c1cccnc1)Nc1nc(N2CCOCC2)nc(-n2c(C(F)F)nc3ccccc32)n1 [Compound A40, 4-(2-(difluoromethyl)-1H-benzo[d]imidazol-1-yl)-N-(2-methyl-1-(2-(pyridin-3-yl)phenyl)propan-2-yl)-6-morpholino-1,3,5-triazin-2-amine] | ≤ 0.1 | B’ | ≤ 0.1 | A’
7 | COc1cc(-c2ccccc2CC(C)(C)Nc2nc(N3CCOCC3)nc(-n3c(C(F)F)nc4ccccc43)n2)ccn1 [Compound A41, 4-(2-(difluoromethyl)-1H-benzo[d]imidazol-1-yl)-N-(1-(2-(2-methoxypyridin-4-yl)phenyl)-2-methylpropan-2-yl)-6-morpholino-1,3,5-triazin-2-amine] | > 0.5 | D’ | 0.1 to 0.2 | B’
8 | Cc1cc(-c2ccccc2CC(C)(C)Nc2nc(N3CCOCC3)nc(-n3c(C(F)F)nc4ccccc43)n2)ccn1 [Compound A43, 4-(2-(difluoromethyl)-1H-benzo[d]imidazol-1-yl)-N-(2-methyl-1-(2-(2-methylpyridin-4-yl)phenyl)propan-2-yl)-6-morpholino-1,3,5-triazin-2-amine] | ≤ 0.1 | A’ | ≤ 0.1 | C’
9 | CN1CCC(c2ccccc2CC(C)(C)Nc2nc(N3CCOCC3)nc(-n3c(C(F)F)nc4ccccc43)n2)C1 (stereo not shown) [Compound A75, 4-(2-(difluoromethyl)-1H-benzo[d]imidazol-1-yl)-N-(2-methyl-1-(2-(1-methylpyrrolidin-3-yl)phenyl)propan-2-yl)-6-morpholino-1,3,5-triazin-2-amine] |  |  | ≤ 0.1 | A’

Other lines, results leading:

Row | IC50 (PI3K beta) [µM] | α/β ratio (PI3K beta) | IC50 (PI3Kβ) [µM] | α/β ratio (PI3Kβ) | Structure (SMILES)
10 | ≤ 0.1 | A’ | ≤ 0.1 | B’ | CC(C)(Cc1ccccc1)Nc1nc(N2CCOCC2)nc(-n2c(C(F)F)nc3ccccc32)n1 [Compound A14, 4-(2-(difluoromethyl)-1H-benzo[d]imidazol-1-yl)-N-(2-methyl-1-phenylpropan-2-yl)-6-morpholino-1,3,5-triazin-2-amine]
11 | 0.1 to 0.2 | D’ | ≤ 0.1 | C’ | CC(C)(Cc1ccccc1F)Nc1nc(N2CCOCC2)nc(-n2c(C(F)F)nc3ccccc32)n1 [Compound A15, 4-(2-(difluoromethyl)-1H-benzo[d]imidazol-1-yl)-N-(1-(2-fluorophenyl)-2-methylpropan-2-yl)-6-morpholino-1,3,5-triazin-2-amine]
12 | ≤ 0.1 | A’ | ≤ 0.1 | B’ | CC(C)(Cc1ccccc1Cl)Nc1nc(N2CCOCC2)nc(-n2c(C(F)F)nc3ccccc32)n1 [Compound A16, 4-(2-(difluoromethyl)-1H-benzo[d]imidazol-1-yl)-N-(1-(2-chlorophenyl)-2-methylpropan-2-yl)-6-morpholino-1,3,5-triazin-2-amine]
13 | ≤ 0.1 | A’ | ≤ 0.1 | C’ | Cc1ccccc1CC(C)(C)Nc1nc(N2CCOCC2)nc(-n2c(C(F)F)nc3ccccc32)n1 [Compound A18, 4-(2-(difluoromethyl)-1H-benzo[d]imidazol-1-yl)-N-(2-methyl-1-(o-tolyl)propan-2-yl)-6-morpholino-1,3,5-triazin-2-amine]
14 | 0.2 to 0.5 | D’ | ≤ 0.1 |  | COc1ccccc1CC(C)(C)Nc1nc(N2CCOCC2)nc(-n2c(C(F)F)nc3ccccc32)n1 [Compound A19, 4-(2-(difluoromethyl)-1H-benzo[d]imidazol-1-yl)-N-(1-(2-methoxyphenyl)-2-methylpropan-2-yl)-6-morpholino-1,3,5-triazin-2-amine]
15 | 0.1 to 0.2 | C’ | ≤ 0.1 | C’ | CC(C)(Cc1ccc(F)cc1)Nc1nc(N2CCOCC2)nc(-n2c(C(F)F)nc3ccccc32)n1 [Compound A22, 4-(2-(difluoromethyl)-1H-benzo[d]imidazol-1-yl)-N-(1-(4-fluorophenyl)-2-methylpropan-2-yl)-6-morpholino-1,3,5-triazin-2-amine]
